The results in this text go back to patent US6596719B1 (Actelio Pharmaceuticals Ltd., priority 1999, dated 2003).

Experiment [1] concerns the target T1, human recombinant ETB receptors (Homo sapiens, UniProt P24530).
T1 construct: expressed in transfected cells; host or cells: CHO cells (microsomal membranes)
T1 sequence (P24530 27-442): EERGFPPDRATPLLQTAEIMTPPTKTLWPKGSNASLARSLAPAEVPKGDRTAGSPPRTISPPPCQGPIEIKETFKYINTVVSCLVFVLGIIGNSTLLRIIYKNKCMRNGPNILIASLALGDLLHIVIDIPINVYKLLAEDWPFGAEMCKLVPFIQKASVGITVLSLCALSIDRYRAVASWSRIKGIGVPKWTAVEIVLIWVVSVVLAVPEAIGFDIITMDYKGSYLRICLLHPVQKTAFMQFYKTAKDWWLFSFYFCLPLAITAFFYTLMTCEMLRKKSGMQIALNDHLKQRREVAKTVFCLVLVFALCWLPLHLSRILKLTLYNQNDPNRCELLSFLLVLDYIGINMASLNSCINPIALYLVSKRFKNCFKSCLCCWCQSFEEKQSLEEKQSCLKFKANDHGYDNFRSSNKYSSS
Put plainly: Inhibition of endothelin binding to membranes from CHO cells carrying human ET receptors (ETB). As to the method:
1) Inhibition of Endothelin Binding to Membranes from CHO Cells Carrying Human ET Receptors:
For competition binding studies, membranes of CHO cells expressing human recombinant ETA or ETB receptors were used. Microsomal membranes from recombinant CHO cells were prepared and the binding assay made as previously described (Breu V., et al, FEBS Lett 1993; 334:210).
The assay was performed in 200 uL 50 mM Tris/HCl buffer, pH 7.4, including 25 mM MnCl2, 1 mM EDTA and 0.5% (w/v) BSA in polypropylene microtiter plates. […]. […] After two h, the membranes were filtered on, filterplates containing GF/C filters (Unifilterplates from Canberra Packard S. A. Zürich, Switzerland). To each well, 50 uL of scintillation cocktail was added (MicroScint 20, Canberra Packard S. A. Zürich, Switzerland) and the filter plates counted in a microplate counter (TopCount, Canberra Packard S. A. Zürich, Switzerland).
All the test compounds were dissolved, diluted and added in DMSO. […] […].

Experiment [2] concerns the target T2, human recombinant ETA receptors (Homo sapiens, UniProt P25101).
T2 construct: expressed in transfected cells; host or cells: CHO cells (microsomal membranes)
T2 sequence (P25101 21-427): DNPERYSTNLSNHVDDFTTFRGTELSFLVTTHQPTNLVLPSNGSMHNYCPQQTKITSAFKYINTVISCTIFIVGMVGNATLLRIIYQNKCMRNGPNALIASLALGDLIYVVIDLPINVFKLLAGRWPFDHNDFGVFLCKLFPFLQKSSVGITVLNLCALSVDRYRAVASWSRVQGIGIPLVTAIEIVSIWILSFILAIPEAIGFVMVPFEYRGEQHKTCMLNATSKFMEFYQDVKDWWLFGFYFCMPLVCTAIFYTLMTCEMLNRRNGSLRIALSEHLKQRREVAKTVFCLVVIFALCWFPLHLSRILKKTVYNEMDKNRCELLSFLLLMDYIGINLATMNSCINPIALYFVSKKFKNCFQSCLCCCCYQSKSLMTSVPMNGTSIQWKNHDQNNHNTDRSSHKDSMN
The experiment can be described thus: Inhibition of endothelin binding to membranes from CHO cells carrying human ET receptors (ETA).

Where [3] appears, read: membranes of CHO cells expressing human recombinant ETB receptors, 8 pM [125I]ET-1, 2 h at 20° C.
[4] abbreviates: membranes of CHO cells expressing human recombinant ETA receptors, 8 pM [125I]ET-1, 2 h at 20° C.

Where two headings read alike, the source gives them in different places.

The IC50 is the concentration that inhibits the measured activity by half. With `COc1ccccc1Oc1c(NS(=O)(=O)c2ccc(C(C)C)cn2)nc(C(F)(F)F)nc1OCCNS(=O)(=O)c1cccs1` [Example 54, 5-i.-propyl-N-[6-(2-((2-thiophene)-sulfonylamino)-ethoxy)-5-(o-methoxyphenoxy)-2-trifluoromethyl-4-pyrimidinyl]pyridine-2-sulfonamide], the IC50 in experiment [1] stood at 603 nM; in experiment [2], 2410 nM.

On to `CCS(=O)(=O)NCCOc1nc(SC)nc(NS(=O)(=O)c2ccc(C(C)(C)C)cc2)c1Oc1ccccc1OC` [Example 36f, 4-tert.-butyl-N-[6-(2-ethanesulfonylamino-ethoxy)-5-(o-methoxyphenoxy)-2-methylsulfanyl-pyrimidin-4-yl]-benzenesulfonamide], for which the IC50 was found to be 1210 nM in experiment [1] and 478 nM in experiment [2].

For the compound `COc1ccccc1Oc1c(NS(=O)(=O)c2ccc(C(C)C)cn2)nc(-c2ccncc2)nc1OCCNS(=O)(=O)C(F)(F)F` [Example 74], the IC50 in experiment [1] was determined as 934 nM; in experiment [2], 531 nM.

For the compound `COc1ccccc1Oc1c(NS(=O)(=O)c2ccc(C(C)C)cn2)nc(-c2ccncc2)nc1OCCNS(C)(=O)=O` [Example 14, 5-i.-propyl-N-[6-(ethoxy-2-methanesulfonamido)-5-(o-methoxyphenoxy)-2-(4-pyridyl)-4-pyrimidinyl]pyridine-2-sulfonamide], the IC50 in experiment [1] was 451 nM; in experiment [2], 518 nM.

`COc1ccccc1Oc1c(NS(=O)(=O)c2ccc(C(C)(C)C)cc2)ncnc1OCCNS(=O)(=O)c1cccs1` [Example 29, 4-tert.-butyl-N-{6-[2-(2-thiophenesulfonyl-amino)-ethoxy]-5-(o-methoxy-phenoxy)-pydmidin-4-yl}-benzenesulfonamide]: the IC50 in experiment [1] worked out at 235 nM; in experiment [2] it was 1250 nM.

As for `COc1ccccc1Oc1c(NS(=O)(=O)c2ccc(C(C)(C)C)cc2)nc(SC)nc1OCCNS(=O)(=O)c1ccc(C)cc1` [Example 37, 4-tert.-butyl-N-[6-(2-p-toluenesulfonylamino-ethoxy)-5-(o-methoxyphenoxy)-2-methylsulfanyl-pyrimidin-4-yl]-benzenesulfonamide], the IC50 in experiment [1] stood at 604 nM; in experiment [2] it was 5680 nM.

As to `CCCCS(=O)(=O)NCCOc1nc(C(F)(F)F)nc(NS(=O)(=O)c2ccc(C(C)C)cn2)c1Oc1ccccc1OC` [Example 49, 5-i.-propyl-N-[6-(2-butanesulfonylamino-ethoxy)-5-(o-methoxyphenoxy)-2-trifluoromethyl-4-pyrimidinyl]pyridine-2-sulfonamide], the half-maximal inhibitory concentration (IC50) amounted to 274 nM in experiment [1] and 1030 nM in experiment [2].

On to `COc1ccccc1Oc1c(NS(=O)(=O)c2ccc(C(C)(C)C)cc2)nc(-c2ccncc2)nc1OCCNS(=O)(=O)c1cccs1` [Example 51, 4-tert.-butyl-N-[6-(2-(thiophene-2-sulfonylamino)-ethoxy)-5-(o-methoxyphenoxy)-2-(4-pyridyl)-4-pyrimidinyl]-benzene-sulfonamide], for which the half-maximal inhibitory concentration (IC50) in experiment [1] stood at 182 nM; in experiment [2], 3450 nM.

Regarding `CCCS(=O)(=O)NCCCOc1nc(C2CC2)nc(NS(=O)(=O)c2ccc(C(C)C)cn2)c1Oc1ccccc1OC` [Example 92, 5-i.-propyl-N-[6-(3-(propanesulfonylamino)-propoxy)-5-(o-methoxyphenoxy)-2-cyclopropyl-4-pyrimidinyl]-pyridine-2-sulfonamide], the values for the IC50 in experiment [1] (setting [3]) and in experiment [2] (setting [4]) were 15 nM and 82.1 nM, respectively.

Regarding `COc1ccccc1Oc1c(NS(=O)(=O)c2ccc(C(C)C)cn2)nc(-c2cc(OC)c(OC)c(OC)c2)nc1OCCNS(=O)(=O)C(C)C` [Example 18], the results for the IC50 in experiment [1] and in experiment [2] were 1050 nM and 209 nM, respectively.

Turning to `COc1ccccc1Oc1c(NS(=O)(=O)c2ccc(C)cn2)nc(N2CCOCC2)nc1OCCNS(=O)(=O)c1ccccc1` [Example 57, 5-methyl-N-[6-(2-(benzenesulfonylamino)-ethoxy)-5-(o-methoxyphenoxy)-2-(N-morpholino)-4-pyrimidinyl]-2-pyridine sulfonamide], the concentration for half-maximal inhibition (IC50) stood at 208 nM in experiment [1] and 1620 nM in experiment [2].

With `COc1ccccc1Oc1c(NS(=O)(=O)c2ccc(C(C)C)cn2)nc(N2CCOCC2)nc1OCCNS(C)(=O)=O` [Example 45, 5-isopropyl-N-[6-(2-methanesulfonylamino-ethoxy)-5-(o-methoxyphenoxy)-2-(N-morpholino)-4-pyrimidinyl]-2-pyridine sulfonamide], the IC50 in experiment [1] was determined as 336 nM; in experiment [2], 251 nM.

For `COc1ccccc1Oc1c(NS(=O)(=O)c2ccc(C(C)C)cn2)nc(N2CCOCC2)nc1OCCNS(=O)(=O)c1cccs1` [Example 42, 5-isopropyl-N-[6-(2-(2-thiophensulfonyl)-amino-ethoxy)-5-(o-methoxyphenoxy)-2-(N-morpholino)-4-pyrimidinyl]-2-pyridine sulfonamide], the concentration for half-maximal inhibition (IC50) in experiment [1] (setting [3]) came to 99 nM; in experiment [2] (setting [4]), 587 nM.

As to `CCS(=O)(=O)NCCOc1nc(-c2ccncc2)nc(NS(=O)(=O)c2ccc(C)cn2)c1Oc1ccccc1OC` [Example 77, 5-methyl-N-[6-(2-(ethanesulfonylamino)-ethoxy)-5-(o-methoxyphenoxy)-2-(4-pyridyl)-4-pyrimidinyl]-2-pyridine sulfonamide], the IC50 in experiment [1] (setting [3]) was 5400 nM; in experiment [2] (setting [4]), 185 nM.

With `COc1ccccc1Oc1c(NS(=O)(=O)c2ccc(C(C)C)cn2)nc(C2CC2)nc1OCCCNS(=O)(=O)c1cccs1` [Example 93, 5-i.-propyl-N-[6-(3-(2-thiophenesulfonylamino)-propoxy)-5-(o-methoxyphenoxy)-2-cyclopropyl-4-pyrimidinyl]-pyridine-2-sulfonamide], the IC50 worked out at 3.86 nM in experiment [1] and 22.2 nM in experiment [2] (setting [4]).

Turning to `CCS(=O)(=O)NCCOc1ncnc(NS(=O)(=O)c2ccc(C(C)(C)C)cc2)c1Oc1ccccc1OC` [Example 31, 4-tert.-butyl-N-{6-[2-(ethanesulfonylamino)-ethoxy]-5-(o-methoxy-phenoxy)-pydmidin-4-yl}-benzenesulfonamide], the IC50 in experiment [1] came to 735 nM; in experiment [2], 409 nM.

For the compound `COc1ccccc1Oc1c(NS(=O)(=O)c2ccc(C(C)C)cn2)nc(C2CC2)nc1OCCCNS(=O)(=O)c1ccc(C)cc1` [Example 94, 5-i.-propyl-N-[6-(3-(p-toluenesulfonylamino)-propoxy)-5-(o-methoxyphenoxy)-2-cyclopropyl-4-pyrimidinyl]-pyridine-2-sulfonamide], the IC50 stood at 18.6 nM in experiment [1] and 77.3 nM in experiment [2] (setting [4]).

Take `COc1ccccc1Oc1c(NS(=O)(=O)c2ccc(C(C)(C)C)cc2)nc(C2CC2)nc1OCCNS(=O)(=O)c1ccc(C)cc1` [Example 41]: the concentration for half-maximal inhibition (IC50) in experiment [1] (setting [3]) came to 299 nM; in experiment [2] (setting [4]), 4900 nM.

With `COc1ccccc1Oc1c(NS(=O)(=O)c2ccc(C(C)(C)C)cc2)nc(C2CC2)nc1OCCNS(=O)(=O)C(C)C` [Example 40, 4-tert.-butyl-N-[6-(2-(2-propane)-sulfonylamino-ethoxy)-5-(o-methoxyphenoxy)-2-cyclopropyl-pyrimidin-4-yl]-benzene-sulfonamide], the IC50 in experiment [1] is 87 nM; in experiment [2], 76 nM.

Take `COc1ccccc1Oc1c(NS(=O)(=O)c2ccc(C(C)(C)C)cc2)ncnc1OCCNS(=O)(=O)c1ccc(C)cc1` [Example 28, 4-tert.-butyl-N-{6-[2-(4-methylbenzenesulfonyl-amino)-ethoxy]-5-(o-methoxy-phenoxy)-pydmidin-4-yl}-benzenesulfonamide]: the IC50 in experiment [1] was 1040 nM; in experiment [2] it was 3710 nM.

Take `CCS(=O)(=O)NCCOc1nc(-c2ccncc2)nc(NS(=O)(=O)c2ccc(C(C)C)cn2)c1Oc1ccccc1OC` [Example 73]: the half-inhibitory concentration (IC50) in experiment [1] was 542 nM; in experiment [2] it was 233 nM.

`CCS(=O)(=O)NCCOc1nc(N2CCOCC2)nc(NS(=O)(=O)c2ccc(C(C)(C)C)cc2)c1Oc1ccccc1OC` [Example 81, 4-tert.-butyl-N-[6-(2-ethanesulfonylamino-ethoxy)-2-(N-morpholino)-5-(o-methoxyphenoxy)-pyrimidin-4-yl]-benzenesulfonamide]: the figures for the IC50 in experiment [1] and in experiment [2] were 1240 nM and 104 nM, respectively.
